According to the kinase profiling compilation of Christmann-Franck et al. (2016):

Each compound was assayed against SGK1 (human) (UniProt O00141) (assay: Flashplate).
Sequence of SGK1 (human) (O00141 whole entry, looked up): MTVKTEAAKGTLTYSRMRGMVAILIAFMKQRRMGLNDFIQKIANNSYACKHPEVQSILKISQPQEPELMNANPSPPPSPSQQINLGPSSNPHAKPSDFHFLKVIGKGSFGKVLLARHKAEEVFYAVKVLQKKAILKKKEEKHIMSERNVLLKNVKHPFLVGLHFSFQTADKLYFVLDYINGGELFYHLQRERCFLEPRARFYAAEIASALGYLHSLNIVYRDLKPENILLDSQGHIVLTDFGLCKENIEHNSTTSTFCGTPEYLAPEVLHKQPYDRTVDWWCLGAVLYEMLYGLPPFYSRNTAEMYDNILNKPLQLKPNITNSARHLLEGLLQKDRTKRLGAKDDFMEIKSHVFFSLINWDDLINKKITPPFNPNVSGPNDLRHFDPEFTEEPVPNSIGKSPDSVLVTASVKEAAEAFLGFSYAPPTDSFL

Row | SMILES | Ki
1 | Cc1cc(C)cc(NC(=O)Nc2ccc(-c3cccc4snc(N)c34)cc2)c1 | > 10 µM
2 | O=C1NC(=S)S/C1=C1\C(=O)Nc2ccc(Br)cc21 | 2 µM
3 | COc1cccc(Nc2ncnc3ccccc23)c1 | > 10 µM
4 | CCn1c(-c2nonc2N)nc2cnc(Oc3cccc(NC(=O)c4ccc(OCCN5CCOCC5)cc4)c3)cc21 | 0.2 µM
5 | Cc1cccc(NC(=O)Nc2ccc(-c3cccc4[nH]nc(N)c34)cc2)c1 | 1 µM
6 | Cc1cccc(Nc2nc(N[C@@H]3CCCC[C@@H]3N)cnc2C(N)=O)c1 | > 7.94 µM
7 | NCCCOc1cncc(/C=C/c2ccncc2)c1 | > 10 µM
8 | CCCCn1c(NC(=O)c2cccc(C#N)c2)nc2cc(N(C)C(=O)C3CCCCC3)ccc21 | > 10 µM
9 | OC(COc1cncc(/C=C/c2ccncc2)c1)Cc1c[nH]c2ccccc12 (stereo not drawn) | > 10 µM
10 | CC[C@@H]1C(=O)N(C)c2cnc(Nc3ccc(C(=O)NC4CCCCC4)cc3OC)nc2N1C1CCCC1 | > 10 µM
11 | Nc1n[nH]c2cccc(-c3ccc(NC(=O)Nc4cc(C(=O)O)ccc4F)cc3)c12 | 0.398 µM
12 | Nc1nccc2scc(-c3ccc(NC(=O)Nc4ccccc4C(F)(F)F)cc3)c12 | > 10 µM
13 | O=S(=O)(NCCNC/C=C/c1ccc(Br)cc1)c1cccc2cnccc12 | 1 µM
14 | O=C(NCC1CCCCC1)c1cc2c(-c3ccccc3)n[nH]c2s1 | 3.16 µM
15 | N[C@@H](Cc1cccc2ccccc12)C(=O)Nc1cncc(/C=C/c2ccncc2)c1 | > 10 µM
16 | COc1ccc(CNc2c(Nc3ccncc3)c(=O)c2=O)c(OC)c1 | > 10 µM
17 | Cc1cc2cc(-c3csc4c(-c5cccc(S(C)(=O)=O)c5)cnc(N)c34)ccc2[nH]1 | > 10 µM
18 | Nc1nonc1-n1nnc(C(=O)N/N=C/c2cccs2)c1-c1cccs1 | > 10 µM
19 | C/C(=N/NC(=N)N)c1cc(NC(=O)c2cccc(C(=O)Nc3cc(/C(C)=N\NC(=N)N)cc(/C(C)=N/NC(=N)N)c3)c2)cc(/C(C)=N/NC(=N)N)c1 | 1.26 µM
20 | CN(c1ncccc1CNc1nc(Nc2ccc3c(c2)CC(=O)N3)ncc1C(F)(F)F)S(C)(=O)=O | 2.51 µM
21 | CN(C(=O)C1CCCCC1)c1ccc2c(c1)nc(NC(=O)c1ccc(C#N)cc1)n2C | > 10 µM
22 | Cn1cc(-c2cnc(N)c3c(-c4ccc(NC(=O)Nc5ccc(OC(F)F)cc5)cc4)csc23)cn1 | > 10 µM
23 | Nc1ncnc2c1sc1ncnc(N)c12 | 0.158 µM
24 | COc1cc(/C=C(\C#N)c2n[nH]c(N)c2C#N)ccc1O | > 10 µM
25 | NC(=O)c1cc2c(-c3ccc(Br)c(F)c3F)cncc2s1 | 0.398 µM
26 | COc1ccc(C(=O)Nc2nc3ccc(Cl)cc3s2)c(OC)c1 | > 10 µM
27 | C[C@@H](O)Cn1cc(-c2cnc(N)c3c(-c4ccc(NC(=O)Nc5cccc(F)c5)cc4)csc23)cn1 | 2.51 µM

Row | SMILES | Ki
28 | COc1cc(C(=O)O)c(Cl)cc1NC(=O)Nc1cnc(C#N)cn1 | > 10 µM
29 | O=c1c(NCCc2ccc(Oc3ccccc3)cc2)c(Nc2ccncc2)c1=O | > 10 µM
30 | O=c1[nH]c2cc(Cl)cc(Cl)c2c(-c2cc(Cl)ccc2O)c1O | > 10 µM
31 | FC(F)(F)c1ccc(Cn2cc(-c3ccc4[nH]ncc4c3)nn2)c(C(F)(F)F)c1 | > 10 µM
32 | Brc1ccc2c(c1)-c1[nH]ncc1C2 | > 10 µM
33 | Nc1nccc2scc(-c3ccc(NC(=O)Nc4cccc(Cl)c4)cc3)c12 | > 10 µM
34 | CC(C)(C)c1cc(NC(=O)Nc2cccc3ccccc23)n(-c2cccc(C(=O)NCC#N)c2)n1 | > 10 µM
35 | CC(C)OC1=NNC(=O)/C1=C/c1c[nH]c2ccccc12 | > 10 µM
36 | Cc1n[nH]c2ccc(-c3cncc(OCCN)c3)cc12 | 2 µM
37 | NC(=O)c1cc2c(-c3cc(C(F)(F)F)cc(C(F)(F)F)c3)cncc2s1 | > 10 µM
38 | CN(c1ccccc1CNc1nc(N)nc2[nH]ccc12)S(C)(=O)=O | > 10 µM
39 | Nc1ncnc2c1c(-c1cccc(OCc3ccccc3)c1)cn2[C@H]1CC[C@H](N2CCCC2)CC1 | > 10 µM
40 | CCN(CC)CCOc1ccc(-c2nc3c(C(N)=O)cccc3[nH]2)cc1 | > 10 µM
41 | Cc1cc(O)ccc1-n1cc(C(N)=O)c(=O)c2ccc(-c3ccncc3)cc21 | > 10 µM
42 | CCNC(=O)c1cnc(N)c2c(-c3ccc(NC(=O)Nc4cccc(F)c4)cc3)csc12 | > 10 µM
43 | COc1ccc(NC(=O)Nc2ccc(-c3csc4c(-c5cnn(CCO)c5)cnc(N)c34)cc2)cc1 | > 10 µM
44 | Cc1cccc(NC(=O)Nc2ccc(-c3csc4ncnc(N)c34)cc2)c1 | > 10 µM
45 | CC(=O)Nc1cc(N)c(C#N)c(-c2ccccc2)n1 | > 10 µM
46 | NC(=O)c1cccc(-c2cnc3[nH]cc(-c4ccccc4)c3c2)c1 | 0.126 µM
47 | Cn1c(NC[C@@H](N)Cc2ccccc2)nc(-c2ccncc2)c(-c2ccc3ccccc3c2)c1=O | > 7.94 µM
48 | C[C@H](Nc1nccc(-c2c(-c3ccc(F)cc3)nc3occn23)n1)c1ccccc1 | > 10 µM
49 | CNC(=O)c1ccccc1Sc1ccc2c(/C=C/c3ccccn3)n[nH]c2c1 | > 10 µM
50 | Nc1ncnc2scc(-c3ccc(NC(=O)Nc4ccccc4)cc3)c12 | 3.98 µM
51 | O=C1NN=Cc2c[nH]c3cc(NC(=O)[C@@H]4C[C@H]4c4ccccc4)cc1c23 | 0.0398 µM
52 | COc1cc(/C=C2\S/C(=N\c3ccccc3)NC2=O)ccc1O | 5.01 µM
53 | Cc1nc2ccccn2c1-c1csc(Nc2ccc(O)cc2)n1 | > 10 µM
